PubChem BioAssay AID248 (DTP/NCI, 2004)
Several values for one entry are separate records, joined by “and”; a condition that tells them apart may be missing. Equal entries are not always repeated. Toxic doses and inconclusive results are not listed. No stated cut-off is given here; in the data, active means T/C of 150% or more; inactive means T/C below 125%.

System: L1210 leukemia ip in BDF1 mice, survival T/C
Test: NCI In Vivo Anticancer Drug Screen. Data for tumor model L1210 Leukemia (intraperitoneal) in B6D2F1 (BDF1) mice
Details: endpoint: mean survival time, higher = longer survival
Procedure, shortened: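 Transplantable tumor model; survival measured in treated vs vehicle control mice. Value = treated/control.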

[1] = dose: 100.0 mg/kg/injection, schedule: Q01DX009 (ip), vehicle: Klucel (hydroxypropylcellulose) (HPC)
[2] = dose: 100.0 mg/kg/injection, schedule: Q01DX001 (ip), vehicle: saline
[3] = dose: 200.0 mg/kg/injection, schedule: Q01DX001 (ip), vehicle: saline
[4] = dose: 400.0 mg/kg/injection, schedule: Q01DX001 (ip), vehicle: saline
[5] = dose: 100.0 mg/kg/injection, schedule: Q04DX003 (ip), vehicle: Klucel (hydroxypropylcellulose) (HPC)
[6] = dose: 200.0 mg/kg/injection, schedule: Q01DX009 (ip), vehicle: Klucel (hydroxypropylcellulose) (HPC)
[7] = dose: 200.0 mg/kg/injection, schedule: Q04DX003 (ip), vehicle: Klucel (hydroxypropylcellulose) (HPC)
[8] = dose: 400.0 mg/kg/injection, schedule: Q04DX003 (ip), vehicle: Klucel (hydroxypropylcellulose) (HPC)
[9] = dose: 100.0 mg/kg/injection, schedule: Q01DX001 (ip), vehicle: carboxymethylcellulose (CMC)
[10] = dose: 200.0 mg/kg/injection, schedule: Q01DX001 (ip), vehicle: carboxymethylcellulose (CMC)
[11] = dose: 400.0 mg/kg/injection, schedule: Q01DX001 (ip), vehicle: carboxymethylcellulose (CMC)

Measured: T/C

O=[N+]([O-])c1ccc(N/N=C\c2ccc(OCCOCCCl)cc2)c([N+](=O)[O-])c1
inactive: dose: 25.0 mg/kg/injection, schedule: Q01DX001 (ip), vehicle: saline with Tween-80 94 % of control | dose: 50.0 mg/kg/injection, schedule: Q01DX001 (ip), vehicle: saline with Tween-80 86 % of control | dose: 100.0 mg/kg/injection, schedule: Q01DX001 (ip), vehicle: saline with Tween-80 94 % of control and 92 % of control

COC1=C(N=[N+]=[N-])C(=O)C(OC)=C(N=[N+]=[N-])C1=O
inactive: dose: 2.0 mg/kg/injection, schedule: Q01DX009 (ip), vehicle: carboxymethylcellulose (CMC) 93 % of control | dose: 2.5 mg/kg/injection, schedule: Q01DX001 (ip), vehicle: carboxymethylcellulose (CMC) 95 % of control | dose: 4.0 mg/kg/injection, schedule: Q01DX009 (ip), vehicle: carboxymethylcellulose (CMC) 98 % of control | dose: 5.0 mg/kg/injection, schedule: Q01DX001 (ip), vehicle: carboxymethylcellulose (CMC) 91 % of control | dose: 5.0 mg/kg/injection, schedule: Q04DX003 (ip), vehicle: carboxymethylcellulose (CMC) 93 % of control | dose: 8.0 mg/kg/injection, schedule: Q01DX009 (ip), vehicle: carboxymethylcellulose (CMC) 104 % of control | dose: 10.0 mg/kg/injection, schedule: Q01DX001 (ip), vehicle: carboxymethylcellulose (CMC) 95 % of control and 100 % of control | dose: 10.0 mg/kg/injection, schedule: Q04DX003 (ip), vehicle: carboxymethylcellulose (CMC) 110 % of control | dose: 20.0 mg/kg/injection, schedule: Q01DX001 (ip), vehicle: carboxymethylcellulose (CMC) 98 % of control | dose: 20.0 mg/kg/injection, schedule: Q04DX003 (ip), vehicle: carboxymethylcellulose (CMC) 90 % of control | dose: 30.0 mg/kg/injection, schedule: Q04DX003 (ip), vehicle: saline with Tween-80 93 % of control | dose: 36.25 mg/kg/injection, schedule: Q01DX009 (ip), vehicle: saline 114 % of control | dose: 45.0 mg/kg/injection, schedule: Q04DX003 (ip), vehicle: saline with Tween-80 104 % of control | dose: 65.0 mg/kg/injection, schedule: Q04DX003 (ip), vehicle: saline with Tween-80 100 % of control | dose: 72.5 mg/kg/injection, schedule: Q01DX009 (ip), vehicle: saline 100 % of control | dose: 95.0 mg/kg/injection, schedule: Q04DX003 (ip), vehicle: saline 94 % of control | dose: 145.0 mg/kg/injection, schedule: Q01DX009 (ip), vehicle: saline 86 % of control | dose: 145.0 mg/kg/injection, schedule: Q04DX003 (ip), vehicle: saline 92 % of control

CC(=O)c1cccc(NC(=O)Oc2cc(=O)oc3ccccc23)c1
inactive: dose: 25.0 mg/kg/injection, schedule: Q01DX009 (ip), vehicle: Klucel (hydroxypropylcellulose) (HPC) 92 % of control | dose: 50.0 mg/kg/injection, schedule: Q01DX009 (ip), vehicle: Klucel (hydroxypropylcellulose) (HPC) 101 % of control | [1] 101 % of control

CN/N=C/c1[nH]c(=O)[nH]c(=O)c1C
inactive: [2] 93 % of control | [3] 96 % of control | [4] 104 % of control

O=C(c1ccccc1)C1C(c2ccccc2)N1C(=O)c1ccc([N+](=O)[O-])cc1 (stereo unspecified)
inactive: dose: 75.0 mg/kg/injection, schedule: Q01DX001 (ip), vehicle: saline with Tween-80 96 % of control | dose: 150.0 mg/kg/injection, schedule: Q01DX001 (ip), vehicle: saline with Tween-80 86 % of control | dose: 300.0 mg/kg/injection, schedule: Q01DX001 (ip), vehicle: saline with Tween-80 91 % of control

C[C@]12CC[C@H]3[C@@H](CCC4=CC(=O)CC[C@@]43CO)[C@@H]1CC[C@@H]2O
inactive: dose: 50.0 mg/kg/injection, schedule: Q01DX001 (sc), vehicle: steriod suspending solution 102 % of control | dose: 100.0 mg/kg/injection, schedule: Q01DX001 (sc), vehicle: steriod suspending solution 98 % of control | dose: 200.0 mg/kg/injection, schedule: Q01DX001 (sc), vehicle: steriod suspending solution 98 % of control | dose: 400.0 mg/kg/injection, schedule: Q01DX001 (sc), vehicle: steriod suspending solution 102 % of control

COc1ccc2c(c1)CC/C(=C\c1ccccn1)C2=O
inactive: dose: 100.0 mg/kg/injection, schedule: Q04DX003 (ip), vehicle: carboxymethylcellulose (CMC) 98 % of control | dose: 200.0 mg/kg/injection, schedule: Q04DX003 (ip), vehicle: carboxymethylcellulose (CMC) 97 % of control | dose: 400.0 mg/kg/injection, schedule: Q04DX003 (ip), vehicle: carboxymethylcellulose (CMC) 98 % of control

O=C(/C=C\c1ccccc1)/C=C/c1ccccc1
inactive: [1] 90 % of control | dose: 100.0 mg/kg/injection, schedule: Q01DX009 (sc), vehicle: olive oil, sesame oil, peanut oil 113 % of control | [5] 95 % of control | [6] 95 % of control | dose: 200.0 mg/kg/injection, schedule: Q01DX009 (sc), vehicle: olive oil, sesame oil, peanut oil 98 % of control | [7] 98 % of control | dose: 400.0 mg/kg/injection, schedule: Q01DX009 (sc), vehicle: olive oil, sesame oil, peanut oil 102 % of control | [8] 98 % of control

C#CC1(O)CCCCCC1
inactive: dose: 100.0 mg/kg/injection, schedule: Q04DX002 (ip), vehicle: saline with Tween-80 95 % of control | dose: 200.0 mg/kg/injection, schedule: Q04DX002 (ip), vehicle: saline with Tween-80 100 % of control | dose: 400.0 mg/kg/injection, schedule: Q04DX002 (ip), vehicle: saline with Tween-80 92 % of control

CCOC(=O)S(=O)(=O)c1ccc(C)cc1
inactive: dose: 100.0 mg/kg/injection, schedule: Q04DX003 (ip), vehicle: acetone 106 % of control | dose: 200.0 mg/kg/injection, schedule: Q04DX003 (ip), vehicle: acetone 96 % of control | dose: 400.0 mg/kg/injection, schedule: Q04DX003 (ip), vehicle: acetone 101 % of control

Cc1c(C)c2c(C#N)c3ccccc3nc2c2ccccc12
inactive: dose: 50.0 mg/kg/injection, schedule: Q04DX003 (ip), vehicle: Klucel (hydroxypropylcellulose) (HPC) 102 % of control | [5] 102 % of control | [7] 107 % of control | [8] 103 % of control

CCCCC(O)CCC (stereo unspecified)
inactive: [1] 96 % of control | dose: 100.0 mg/kg/injection, schedule: Q01DX009 (ip), vehicle: saline with Tween-80 98 % of control | [5] 98 % of control | dose: 100.0 mg/kg/injection, schedule: Q04DX003 (ip), vehicle: saline with Tween-80 100 % of control | [6] 107 % of control | dose: 200.0 mg/kg/injection, schedule: Q01DX009 (ip), vehicle: saline with Tween-80 95 % of control | [7] 93 % of control | dose: 200.0 mg/kg/injection, schedule: Q04DX003 (ip), vehicle: saline with Tween-80 98 % of control | dose: 400.0 mg/kg/injection, schedule: Q01DX009 (ip), vehicle: Klucel (hydroxypropylcellulose) (HPC) 95 % of control | dose: 400.0 mg/kg/injection, schedule: Q01DX009 (ip), vehicle: saline with Tween-80 91 % of control | [8] 93 % of control | dose: 400.0 mg/kg/injection, schedule: Q04DX003 (ip), vehicle: saline with Tween-80 98 % of control

OCC(O)C(O)C(O)C(O)C(c1ccc(Br)cc1)c1ccc(Br)cc1 (stereo unspecified)
inactive: dose: 50.0 mg/kg/injection, schedule: Q01DX001 (ip), vehicle: saline 106 % of control | [2] 106 % of control | [3] 101 % of control | [4] 98 % of control

O=C(NCCCCC(NC(=O)OCc1ccccc1)C(=O)Nc1ccc(Nc2ccc(NC(=O)C(CCCCNC(=O)OCc3ccccc3)NC(=O)OCc3ccccc3)cc2)cc1)OCc1ccccc1 (stereo unspecified)
inactive: [2] 88 % of control | [3] 92 % of control | [4] 94 % of control

O=C(CC(c1ccccc1)(c1ccccc1)c1ccccc1)c1ccccc1
inactive: dose: 50.0 mg/kg/injection, schedule: Q01DX001 (ip), vehicle: carboxymethylcellulose (CMC) 98 % of control | [9] 93 % of control | [10] 90 % of control | [11] 93 % of control

CCOC(=O)C1CSC(C)(C(=O)OCC)N1 (stereo unspecified)
inactive: [9] 100 % of control | [10] 96 % of control | [11] 105 % of control
